Reference: PubChem BioAssay (NCI)
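Values below derive from 48-hour exposures of cells grown in 96-well plates, with endpoints linearly interpolated between the two concentrations bracketing the appropriate inhibition level. TGI marks complete inhibition of growth.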

Tests used:
Assay in all cases: NCI tumour cell line growth inhibition, 48 h
KM20L2 colon = system: KM20L2 colon
HOP-18 NSCLC = system: HOP-18 NSCLC
DMS 273 small cell lung = system: DMS 273 small cell lung
M19-MEL melanoma = system: M19-MEL melanoma
XF 498 CNS = system: XF 498 CNS

SMILES | TGI (KM20L2 colon) | TGI (HOP-18 NSCLC) | TGI (DMS 273 small cell lung) | TGI (M19-MEL melanoma) | TGI (XF 498 CNS)
COc1cc(OC)c(/C=C2\N=C(C)N(Nc3nnc(NN4C(=O)/C(=C/c5c(OC)cc(OC)cc5OC)N=C4C)c4ccccc34)C2=O)c(OC)c1 | > 100 µM | > 100 µM | > 100 µM | > 100 µM | 
CN(CCO)c1nc2c(c(=O)[nH]1)CCC2 | > 100 µM | > 100 µM | > 100 µM | > 100 µM | > 100 µM
CC12NN=NC1C(=O)NC2=O (centres undefined) | > 100 µM |  | > 100 µM | > 100 µM | 
CN(C)CCCNC(=O)N/N=C/c1cccc([N+](=O)[O-])c1 |  | > 100 µM | > 100 µM |  | > 100 µM
CCO[C@]12C[C@H](OC)[C@@]3(O)CC(C1[C@H]3OCc1ccccc1)C13C4C2[C@H](OC)C1[C@](COC)(CN4CC)[C@H](O)C[C@@H]3OC (some centres undefined) | > 100 µM |  | > 100 µM | > 100 µM | > 100 µM
C=C1CC2OC2(C(=O)O[C@H]2CCC3[C@@H]4CCC5=CC(=O)CC[C@]5(C)C4CC[C@@]32C)C1=O (some centres undefined) | 16.2 µM | 12.7 µM | 9.15 µM | 31.7 µM | 9.92 µM
